# In patent US9662318B2, “Bitopic muscarinic agonists and antagonists and methods of synthesis and use thereof” (BARRY UNIVERSITY, INC., priority 2012, dated 2017):
# Counter-ions that a name gives are not always drawn.
# Biological target: T1, M3 muscarinic receptor (Homo sapiens, UniProt P20309)
# T1 construct: host or cells: Chinese hamster ovary cells
# Experiment: Accumulation of inositol phosphates in CHO cells
# Type: cell-based
# Settings: ligand 0.1 mM, no carbachol
# T1 sequence (P20309 whole entry): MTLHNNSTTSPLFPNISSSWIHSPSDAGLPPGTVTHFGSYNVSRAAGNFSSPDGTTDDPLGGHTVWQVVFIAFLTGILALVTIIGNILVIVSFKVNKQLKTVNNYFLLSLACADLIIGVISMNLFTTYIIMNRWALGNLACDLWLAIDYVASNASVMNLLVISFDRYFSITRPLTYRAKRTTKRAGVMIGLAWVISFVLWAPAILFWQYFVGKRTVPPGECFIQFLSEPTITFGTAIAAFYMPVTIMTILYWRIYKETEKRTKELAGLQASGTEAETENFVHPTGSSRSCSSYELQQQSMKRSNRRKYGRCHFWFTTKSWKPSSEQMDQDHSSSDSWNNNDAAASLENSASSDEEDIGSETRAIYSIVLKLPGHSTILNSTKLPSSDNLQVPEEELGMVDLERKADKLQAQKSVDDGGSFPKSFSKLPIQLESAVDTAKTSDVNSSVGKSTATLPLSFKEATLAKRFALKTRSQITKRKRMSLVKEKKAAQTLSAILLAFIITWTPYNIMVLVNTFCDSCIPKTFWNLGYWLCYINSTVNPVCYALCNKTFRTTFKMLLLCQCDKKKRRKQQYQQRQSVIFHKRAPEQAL
row,Compound,Effect of ligands on basal activity (accumulation of inositol phosphates as percent of accumulation in the absence of the ligand)
1,"CCCCOc1ccc(C(=O)OCCN2CC=CCC2)cc1 [Compound 9a, 2-(1,2,5,6-tetrahydropyridine-N-ethyl)-4-butoxybenzoate hydrochloride]",100 ± 1%
2,"CCCCCCOc1ccc(C(=O)OCC[N+]2(C)CC=CCC2)cc1 (stereo not shown) [Compound 10c, 2-(1,2,5,6-tetrahydropyridine-N-ethyl)-4-hexoxybenzoate N-methyl iodide]",101 ± 1%

# Biological target: T2, M4 muscarinic receptor (Homo sapiens, UniProt P08173)
# T2 construct: host or cells: Chinese hamster ovary cells
# T2 sequence (P08173 1-479): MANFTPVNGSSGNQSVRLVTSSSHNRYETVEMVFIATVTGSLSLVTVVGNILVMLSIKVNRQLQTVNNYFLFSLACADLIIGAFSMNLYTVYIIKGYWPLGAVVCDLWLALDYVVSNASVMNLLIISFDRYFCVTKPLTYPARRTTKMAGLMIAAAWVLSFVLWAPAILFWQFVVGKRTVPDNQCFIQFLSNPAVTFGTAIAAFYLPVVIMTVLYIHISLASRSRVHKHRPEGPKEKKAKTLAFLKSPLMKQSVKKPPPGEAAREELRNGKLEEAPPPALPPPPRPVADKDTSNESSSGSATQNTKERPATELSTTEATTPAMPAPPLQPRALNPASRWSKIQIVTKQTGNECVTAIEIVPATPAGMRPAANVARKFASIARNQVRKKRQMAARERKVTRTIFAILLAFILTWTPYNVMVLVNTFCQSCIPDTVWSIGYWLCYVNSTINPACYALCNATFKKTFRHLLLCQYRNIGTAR
# Experiment: Competition with [3H]NMS (equilibrium binding, CHO membranes)
# Settings: read-out: Binding Equilibrium Constants (expressed as pKI) (converted)
# Method: (§1) All radioligand binding experiments were optimized and carried out as described earlier. Briefly, membranes were incubated in 96-well plates at 30° C. in the incubation medium described. […] Dissociation was initiated by addition of atropine to final concentration of 5 Tested ligands in final concentration of 100 μM were added concurrently with atropine. Incubations were terminated by filtration through Whatman GF/C glass fiber filters (Whatman) using a Brandel cell harvester (Brandel, Gaithersburg, Md., USA). Filters were dried in vacuum for 1 h while heated at 80° C. and then solid scintillator Meltilex A was melted on filters (105° C., 90 s) using a hot plate. The filters were cooled and counted in Wallac Microbeta scintillation counter.
# (§2) Inhibition constant KI was calculated as: […]
row,Ki,Compound
1,3.98 µM,"CCCCc1ccc(C(=O)OCC[N+]2(C)CC=CCC2)cc1 (stereo not shown) [Compound 10b, 2-(1,2,5,6-tetrahydropyridine-N-ethyl)-4-butylbenzoate N-methyl iodide]"
2,0.398 µM,"CCCCCCOc1ccc(C(=O)OCC[N+]2(C)CC=CCC2)cc1 (stereo not shown) [Compound 10c, 2-(1,2,5,6-tetrahydropyridine-N-ethyl)-4-hexoxybenzoate N-methyl iodide]"

row,Compound,Ki
1,"CCCCOc1ccc(C(=O)OCCN2CC=CCC2)cc1 [Compound 9a, 2-(1,2,5,6-tetrahydropyridine-N-ethyl)-4-butoxybenzoate hydrochloride]",12.6 µM

# Biological target: T3, M1 muscarinic receptor (Homo sapiens, UniProt P11229)
# T3 sequence (P11229 1-460): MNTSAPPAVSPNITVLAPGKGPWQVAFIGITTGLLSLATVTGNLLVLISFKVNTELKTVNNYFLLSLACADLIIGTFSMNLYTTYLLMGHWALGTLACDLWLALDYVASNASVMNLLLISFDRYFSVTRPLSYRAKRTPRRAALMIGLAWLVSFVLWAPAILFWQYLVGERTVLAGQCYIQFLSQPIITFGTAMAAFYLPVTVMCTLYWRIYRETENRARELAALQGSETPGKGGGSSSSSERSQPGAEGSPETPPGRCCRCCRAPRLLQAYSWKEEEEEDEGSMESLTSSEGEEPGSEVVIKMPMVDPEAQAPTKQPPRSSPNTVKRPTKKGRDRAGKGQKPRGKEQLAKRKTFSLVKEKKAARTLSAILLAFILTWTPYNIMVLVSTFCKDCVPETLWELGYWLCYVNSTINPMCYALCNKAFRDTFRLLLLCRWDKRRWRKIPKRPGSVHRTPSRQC
# Experiment: as above
# Settings: read-out: Binding Equilibrium Constants (expressed as pKI) (converted)
# Method: as §1, §2
row,Compound,Ki
1,"CCCCOc1ccc(C(=O)OCCN2CC=CCC2)cc1 [Compound 9a, 2-(1,2,5,6-tetrahydropyridine-N-ethyl)-4-butoxybenzoate hydrochloride]",6.31 µM
2,"CCCCc1ccc(C(=O)OCC[N+]2(C)CC=CCC2)cc1 (stereo not shown) [Compound 10b, 2-(1,2,5,6-tetrahydropyridine-N-ethyl)-4-butylbenzoate N-methyl iodide]",2.51 µM

# Biological target: T4, M5 muscarinic receptor (Homo sapiens, UniProt P08912)
# T4 construct: host or cells: CHO (Chinese hamster ovary) cells, stably transfected
# T4 sequence (P08912 1-532): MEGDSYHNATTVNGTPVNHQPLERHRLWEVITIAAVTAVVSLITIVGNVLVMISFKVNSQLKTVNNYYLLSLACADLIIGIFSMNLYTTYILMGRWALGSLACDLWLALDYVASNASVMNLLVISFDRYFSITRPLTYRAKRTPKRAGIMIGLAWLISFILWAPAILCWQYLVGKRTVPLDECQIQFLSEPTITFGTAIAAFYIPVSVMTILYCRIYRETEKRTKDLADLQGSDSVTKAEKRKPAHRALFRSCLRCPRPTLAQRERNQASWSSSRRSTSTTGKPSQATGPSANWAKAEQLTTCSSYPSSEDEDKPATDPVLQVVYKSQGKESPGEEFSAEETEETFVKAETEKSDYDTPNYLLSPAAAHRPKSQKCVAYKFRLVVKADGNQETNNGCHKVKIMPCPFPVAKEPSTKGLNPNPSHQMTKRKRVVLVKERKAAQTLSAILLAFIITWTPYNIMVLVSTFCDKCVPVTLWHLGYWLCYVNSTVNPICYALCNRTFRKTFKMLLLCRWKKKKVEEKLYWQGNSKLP
# Experiment: as above
# Settings: read-out: Binding Equilibrium Constants (expressed as pKI) (converted)
# Method: as §1, §2
row,Ki,Compound
1,1.58 µM,"CCCCc1ccc(C(=O)OCC[N+]2(C)CC=CCC2)cc1 (stereo not shown) [Compound 10b, 2-(1,2,5,6-tetrahydropyridine-N-ethyl)-4-butylbenzoate N-methyl iodide]"
2,0.158 µM,"CCCCCCOc1ccc(C(=O)OCC[N+]2(C)CC=CCC2)cc1 (stereo not shown) [Compound 10c, 2-(1,2,5,6-tetrahydropyridine-N-ethyl)-4-hexoxybenzoate N-methyl iodide]"

# Biological target: T1, M3 muscarinic receptor
# Experiment: as above
# Settings: read-out: Binding Equilibrium Constants (expressed as pKI) (converted)
# Method: as §1, §2
row,Ki,Compound
1,3.98 µM,"CCCCc1ccc(C(=O)OCC[N+]2(C)CC=CCC2)cc1 (stereo not shown) [Compound 10b, 2-(1,2,5,6-tetrahydropyridine-N-ethyl)-4-butylbenzoate N-methyl iodide]"
2,0.398 µM,"CCCCCCOc1ccc(C(=O)OCC[N+]2(C)CC=CCC2)cc1 (stereo not shown) [Compound 10c, 2-(1,2,5,6-tetrahydropyridine-N-ethyl)-4-hexoxybenzoate N-methyl iodide]"

row,Compound,Ki
1,"CCCCOc1ccc(C(=O)OCCN2CC=CCC2)cc1 [Compound 9a, 2-(1,2,5,6-tetrahydropyridine-N-ethyl)-4-butoxybenzoate hydrochloride]",7.94 µM

# Biological target: T4, M5 muscarinic receptor
# Experiment: [3H]NMS saturation binding
# Settings: M5 CHO membranes; binding sites per mg of membrane protein
row,Compound,BMAX
1,"C[N+]1(C)[C@@H]2C[C@@H](OC(=O)[C@H](CO)c3ccccc3)C[C@H]1[C@@H]1O[C@@H]12 [NMS, N-methyl scopolamine]",1.0 ± 0.1 pmol/mg

# Biological target: T3, M1 muscarinic receptor
# Experiment: Accumulation of inositol phosphates in CHO cells
# Type: cell-based
# Settings: ligand 0.1 mM, no carbachol
row,Effect of ligands on basal activity (accumulation of inositol phosphates as percent of accumulation in the absence of the ligand),Compound
1,98 ± 9%,"CCCCc1ccc(C(=O)OCC[N+]2(C)CC=CCC2)cc1 (stereo not shown) [Compound 10b, 2-(1,2,5,6-tetrahydropyridine-N-ethyl)-4-butylbenzoate N-methyl iodide]"
2,101 ± 1%,"CCCCCCOc1ccc(C(=O)OCC[N+]2(C)CC=CCC2)cc1 (stereo not shown) [Compound 10c, 2-(1,2,5,6-tetrahydropyridine-N-ethyl)-4-hexoxybenzoate N-methyl iodide]"

# System: M1-M5 muscarinic receptors
# Experiment: Competition with [3H]NMS, statements over all subtypes
# Type: binding, human
# Settings: versus other subtypes; from pKI, Table 4
row,higher affinity for the M2 and M5 receptors,Compound
1,one to three fold,"CCCCCCOc1ccc(C(=O)OCC[N+]2(C)CC=CCC2)cc1 (stereo not shown) [Compound 10c, 2-(1,2,5,6-tetrahydropyridine-N-ethyl)-4-hexoxybenzoate N-methyl iodide]"

# Biological target: T2, M4 muscarinic receptor
# Experiment: Accumulation of inositol phosphates in CHO cells
# Type: cell-based
# Settings: M4; ligand 0.1 mM; no carbachol
row,Compound,Effect of ligands on basal activity (accumulation of inositol phosphates as percent of accumulation in the absence of the ligand)
1,"CCCCOc1ccc(C(=O)OCCN2CC=CCC2)cc1 [Compound 9a, 2-(1,2,5,6-tetrahydropyridine-N-ethyl)-4-butoxybenzoate hydrochloride]",100 ± 6%
2,"CCCCCCOc1ccc(C(=O)OCC[N+]2(C)CC=CCC2)cc1 (stereo not shown) [Compound 10c, 2-(1,2,5,6-tetrahydropyridine-N-ethyl)-4-hexoxybenzoate N-methyl iodide]",100 ± 2%

# Same assay, conditions: M4 CHO cells; accumulation of inositol phosphates
row,EMAX,Compound
1,3.3 ± 0.3 fold over basal,"C[N+](C)(C)CCOC(N)=O [carbachol, Carbachol, reference compound]"

# Biological target: T4, M5 muscarinic receptor
# Experiment: Accumulation of inositol phosphates in CHO cells
# Type: cell-based
# Settings: M5; ligand 0.1 mM; no carbachol
row,Effect of ligands on basal activity (accumulation of inositol phosphates as percent of accumulation in the absence of the ligand),Compound
1,90 ± 10%,"CCCCc1ccc(C(=O)OCC[N+]2(C)CC=CCC2)cc1 (stereo not shown) [Compound 10b, 2-(1,2,5,6-tetrahydropyridine-N-ethyl)-4-butylbenzoate N-methyl iodide]"
2,101 ± 1%,"CCCCCCOc1ccc(C(=O)OCC[N+]2(C)CC=CCC2)cc1 (stereo not shown) [Compound 10c, 2-(1,2,5,6-tetrahydropyridine-N-ethyl)-4-hexoxybenzoate N-methyl iodide]"

# Same assay, conditions: M5 CHO cells; accumulation of inositol phosphates
row,EMAX,Compound
1,2.5 ± 0.2 fold over basal,"C[N+](C)(C)CCOC(N)=O [carbachol, Carbachol, reference compound]"
